Reference: patent US6699682B2, “Assay for inhibitors of fatty-acid amide hydrolase” (The Scripps Research Institute, priority 1995, dated 2004)
Like-named read-outs stand apart in the source and are kept apart here. Where a SMILES comes first, the peptide text is derived from it. [ ]: non-standard residue; d: D form. The star is where a group is joined. Sta = CC(C)C[C@H](N)[C@@H](O)CC(=O)O; Isovaleryl = CC(C)CC(=O)*

Experiments:
rats = experiment: effect on spontaneous behavior of rats after ip injection (induction of sleep); format: in vivo, rat; conditions: for sleep-inducing pharmacological effect compared with cis-9,10-octadecenoamide: rats, ip
Experimental: Synthetic cis-9,10-octadecenoamide was injected (ip) into rats in order to test its effect on spontaneous behavior at different doses: 1 (n=2), 2 (n=2), 5 (n=7), 10 (n=10), 20 (n=2), and 50 (n=2) mg, where n = number of rats tested. […] However, at a threshold of 5 mg and above there was a marked effect consisting of an induction of long-lasting motor quiescence associated with eyes closed, sedated behavior characteristic of normal sleep. Also as with normal sleep, the rats still responded to auditory stimuli with orienting reflex and sustained attention toward the source of stimulation. In addition, motor behavior was impaired. The latency to behavioral sedation following administration was about 4 minutes and subjects were normally active again after 1 hour (5 mg), 2 hour (10 mg), or 2.5 hour (20 mg and 50 mg).
We have compared cis-9,10-octadecenoamide to vehicle and the synthetic analogs listed in FIG. 1 to estimate the structural specificity of its sleep-inducing potential. […] More particularly, male Sprague-Dawley rats (300 g at the time of surgery) were implanted under halothane anesthesia (2-3%) with a standard set of electrodes for sleep recordings. This included two screw electrodes placed in the parietal bone over the hippocampus to record the subjects electroencephalogram (EEG) and two wire electrodes inserted in the neck musculature to record postural tone through electromyographic activity (EMG). Rats were housed individually with at libitum access to food and water. The dark-light cycle was controlled (12:12, lights on a 10:00 p.m.). One week after the surgery, rats were habituated to the recording conditions for at least three days. Upon the completion of the habituation period, rats received 2 milliliter (ip) of either: vehicle (5% ethanol/saline solution), cis-9,10-octadecenoamide (10 mg), or oleic acid (10 mg). […] Sleep recordings were visually scored and four stages were determined: wakefulness, slow-wave-sleep 1 (SWS1), slow-wave-sleep 2 (SWS2), and rapid eye movement (REM) sleep.

[1] = biological target: T1, recombinant expressed rat FAAH (Rattus norvegicus, UniProt P97612); experiment: FAAH hydrolysis assays with 14C-labeled fatty acid amide substrates (TLC, scintillation counting); format: biochemical; conditions: for Rate of Hydrolysis: 35 μg transfected COS-7 cell protein, 5 minutes, 37° C.
T1 construct: expressed in transfected cells; host or cells: COS-7 cells, transient, pcDNA3; dounce-homogenised cell extract
T1 sequence (P97612 1-579): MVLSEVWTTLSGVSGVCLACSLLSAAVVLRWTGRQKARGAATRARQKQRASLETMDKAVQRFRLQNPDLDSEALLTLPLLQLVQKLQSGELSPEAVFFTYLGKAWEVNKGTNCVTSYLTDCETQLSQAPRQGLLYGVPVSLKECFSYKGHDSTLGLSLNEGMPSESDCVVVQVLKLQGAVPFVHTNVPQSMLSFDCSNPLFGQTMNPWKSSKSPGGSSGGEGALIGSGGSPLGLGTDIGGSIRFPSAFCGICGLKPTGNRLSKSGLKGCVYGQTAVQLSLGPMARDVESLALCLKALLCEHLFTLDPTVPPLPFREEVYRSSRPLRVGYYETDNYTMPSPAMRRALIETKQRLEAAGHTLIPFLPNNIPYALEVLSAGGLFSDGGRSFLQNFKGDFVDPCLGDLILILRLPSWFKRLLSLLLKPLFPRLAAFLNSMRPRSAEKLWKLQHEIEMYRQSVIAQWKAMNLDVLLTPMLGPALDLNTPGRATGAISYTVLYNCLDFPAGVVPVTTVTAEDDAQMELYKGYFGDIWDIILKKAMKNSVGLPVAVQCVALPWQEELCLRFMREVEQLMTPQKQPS
Experimental: Therefore, COS-7 cells transfected with the rat FAAH cDNA were assayed for anandamide hydrolase activity. To assess the enzymatic activity of the expressed recombinant fatty acid amide hydrolases of this invention on labeled anandamide, the following enzymatic assay was performed. ^14C-anandamide was synthesized as follows: 12.5 μCi (specific activity of 50 μCi/μM) of ^14C arachidonic acid (Moravek Biochemicals) was dissolved in 100 μl CH2Cl2, cooled to 0° C., and treated with excess oxalyl chloride. The reaction mixture was stirred at 25° C. for 6 hours, after which time the solvent was evaporated. The remaining residue was cooled to 0° C., treated with a large excess of ethanolamine, and stirred at 25° C. for 15 minutes. The reaction mixture was then partitioned between ethyl acetate and 2 M HCl, and the organic layer was washed with water and then evaporated to dryness. The resulting ^14C-anandamide was diluted with unlabeled anandamide to a final specific activity of 5 μCi/μM in ethanol. Approximately 1 μCi of ^14C-anandamide and 20 μl of dounce homogenized COS-7 cell extract were used for each anandamide hydrolase assay as detailed above for the oleamide hydrolase assays. Briefly, FAAH hydrolysis assays were conducted in triplicate with 100 μM substrate, 35 μg of rat transfected COS-7 cell protein for 5 minutes at 37° C. (except in the case of stearic amide, where due to low solubility, 20 μM substrate comparison to oleamide were conducted). Products were separated on TLC as described previously, scraped into scintillation fluid, and radioactivity was quantitated by scintillation counting. Substrate hydrolysis in the presence of equal amounts of untransfected COS-7 cell protein extract served as background control in all cases and was substracted from FAAH hydrolysis rates to give the data as presented below.
To further assess the substrate specificity spectrum of enyzmatic hydolytic activity of the recombinant expressed proteins of this invention, other ^14C-labeled fatty acid amides were synthesized as described in Section B6 and above for ^14C-oleamide, with the exception of anandamide as described.
Where indicated in the table the anandamide and oleamide hydrolysis rates are considered to be 100% of FAAH activity to which other fatty acid amide hydrolysis rates are compared.

[2] = test system: amidase activity which catalyzes both the hydrolysis and synthesis of arachidonylethanolamide (anandamide); conditions: cited from earlier work
[3] = biological target: T2, FAAH activity of a rat brain membrane fraction (Rattus norvegicus, UniProt P97612); format: biochemical; conditions: for inhibition of cis-9,10-octadecenoamide hydrolysis (lipid amidase) activity: 1 mM
T2 construct: Cis-9,10-octadecenoamide with rat brain membrane fraction +1 mM phenylmethylsulfonyl fluoride (PMSF); from tissue; host or cells: rat brain membrane fraction
T2 sequence (P97612 1-579): T1 sequence (P97612 1-579)
Experimental: In each case the enzymic reaction is performed is a separate reaction vessel and the product is spotted onto a TLC plate.

For CCCCCCCC/C=C\CCCCCCCC(=O)O [oleic acid, Oleic Acid], the “sleep-inducing pharmacological effect compared with cis-9,10-octadecenoamide” value (rats) was “nor oleic acid (5) showed any overt behavioral effect”.
For CCCCCCCCCCCCCCCC(N)=O [Palmitic Amide, palmitic amide], the “% of FAAH activity (anandamide hydrolysis rate = 100%)” value ([1]; 100 μM substrate) was 9.9% and the “Rate of Hydrolysis” value ([1]; 100 μM substrate) was 33 ± 2 nmol/min/mg.
For N=C(N)c1ccccc1 [benzamidine], the “effect of other inhibitors on the amidase activity” value (“effect of other inhibitors” for short) [2] is given as “little or no effect”.
For CCCCCCCC/C=C\CCCCCCCCCCCC(N)=O [Compound 6, Erucamide], the “sleep-inducing pharmacological effect compared with cis-9,10-octadecenoamide” value (rats) was “substantial reduction in both the degree and duration of the pharmacological effects”.
For aprotinin, the “effect of other inhibitors” value [2] is listed as “little or no effect”.
For CCCCCCCCC/C=C\CCCCCCC(N)=O [Compound 3, Cis-8,9-octadecenoamide], the “sleep-inducing pharmacological effect compared with cis-9,10-octadecenoamide” value (rats) was “substantial reduction in both the degree and duration of the pharmacological effects”.
With CCCCCCCCCCCCCCCCCC(N)=O [Stearic Amide, stearic amide] the “% of FAAH activity (oleamide hydrolysis rate = 100%)” value ([1]; 20 μM substrate) was 5.8% and the “Rate of Hydrolysis” value ([1]; 20 μM substrate) was 2.3 ± 1 nmol/min/mg.
With [Cl][Hg][Cl] [HgCl2, mercuric chloride] the “inhibition of lipid amidase activity” value ([3]; 50 mM) was “inhibited”.
For CC(=O)N[C@@H](CC(C)C)C(=O)N[C@@H](CC(C)C)C(=O)N[C@H](C=O)CCCNC(=N)N [leupeptin], the “effect of other inhibitors” value [2] is listed as “little or no effect”.
In the case of O=S(=O)(F)Cc1ccccc1 [PMSF, phenylmethylsulfonyl fluoride], the “inhibition of the amidase activity” value ([2]; 1.5 mM concentration) is given as “completely inhibited”, the “inhibition of cis-9,10-octadecenoamide hydrolysis (lipid amidase) activity” value [3] is given as “inhibited” and the “inhibition of cis-9,10-octadecenoamide hydrolysis (lipid amidase) activity” value ([3]; listed as phenylmethylsulfonyl fluoride) is given as “completely inhibited”.
In the case of CC(C)C[C@H](NC(=O)[C@@H](NC(=O)N[C@@H](Cc1ccccc1)C(=O)O)[C@@H]1CCN=C(N)N1)C(=O)N[C@H](C=O)Cc1ccccc1 [chymostatin], the “effect of other inhibitors” value [2] is given as “little or no effect”.
With CCCCCCCC/C=C/CCCCCCCC(N)=O [Trans-9,10-octadecenoamide] the “duration of the biological (sleep-inducing) effect” value (rats; 10 mg per rat) was “one hour” and the “sleep-inducing pharmacological effect compared with cis-9,10-octadecenoamide” value (rats) was “much less potent”.
With CCCCCC/C=C\CCCCCCCCCC(N)=O [Compound 4, Cis-11,12-octadecenoamide] the “sleep-inducing pharmacological effect compared with cis-9,10-octadecenoamide” value (rats) was “substantial reduction in both the degree and duration of the pharmacological effects”.
For CC(C)CC(=O)N[C@H](C(=O)N[C@H](C(=O)N[C@@H](CC(C)C)[C@@H](O)CC(=O)N[C@@H](C)C(=O)N[C@@H](CC(C)C)[C@@H](O)CC(=O)O)C(C)C)C(C)C [pepstatin] (Isovaleryl-VV[Sta]A[Sta]-OH), the “effect of other inhibitors” value [2] is given as “little or no effect”.
In the case of CCCCCCCCCCCCCC(N)=O [Myristic Amide, myristic amide], the “% of FAAH activity (anandamide hydrolysis rate = 100%)” value ([1]; 100 μM substrate) is reported as 24.3% and the “Rate of Hydrolysis” value ([1]; 100 μM substrate) is reported as 81 ± 7 nmol/min/mg.
